The values below come from patent publication US9296711B2, “Substituted isoxazole amide compounds as inhibitors of stearoyl-CoA desaturase 1 (SCD1)” (Hoffman-La Roche Inc., priority 2012, dated 2016).

For the first data set, the target named is T1, SCD1 (Mus musculus, UniProt P13516).
T1 construct: Mouse liver microsomes, prepared from mice fed a high-carbohydrate diet, were a source of the SCD; from tissue; host or cells: mouse liver microsomes (mice fed a high-carbohydrate diet)
T1 sequence (P13516 1-355): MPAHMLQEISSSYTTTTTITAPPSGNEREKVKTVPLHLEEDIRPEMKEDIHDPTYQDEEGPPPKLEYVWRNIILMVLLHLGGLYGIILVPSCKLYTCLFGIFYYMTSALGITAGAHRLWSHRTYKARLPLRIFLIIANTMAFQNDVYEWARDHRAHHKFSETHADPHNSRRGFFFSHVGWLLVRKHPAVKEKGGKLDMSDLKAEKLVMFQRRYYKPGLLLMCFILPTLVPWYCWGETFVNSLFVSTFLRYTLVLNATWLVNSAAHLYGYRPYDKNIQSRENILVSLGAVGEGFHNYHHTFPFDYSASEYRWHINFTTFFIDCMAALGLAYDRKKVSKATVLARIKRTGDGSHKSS
Description: SCD assay: release of tritiated water from desaturation of 9,10-3H-stearoyl CoA by mouse liver microsomes. It is filed as biochemical. The settings on record: mouse liver microsomes as SCD source; 300 nM (9,10)3H-stearoyl CoA; 25 minutes at room temperature; read-out: IC50 (in vitro inhibition of SCD1). From the text:
Stearoyl CoA desaturase activity was monitored by a modification of the acyl carrier protein assay described by B. R. Talamo and K. Bloch in Anal. Biochem. 1968, 29, 300-304. The SCD assay monitors the release of tritiated water from the desaturation of 9,10-^3H-stearoyl CoA.
Mouse liver microsomes, prepared from mice fed a high-carbohydrate diet, were a source of the SCD and cyt b5 and cyt b5 reductase, necessary accessory proteins for the coupled reaction. Reaction mixtures for compound titrations contained 50 mM Tris HCl pH 7.5, 100 mM NaCl, 0.165 mg/ml BSA, 2.4% DMSO, 1 mM NADH, 0.03% T-20, and 300 nM (9,10)^3H-stearoyl CoA (Perkin-Elmer). Reactions were initiated upon the addition of 4 ug/ml SCD microsomes. Incubations were terminated after 25 minutes at room temperature with cold 6% TCA. After standing 10 minutes at 4° C., samples were centrifuged 15 minutes at 4000 rpm to pellet precipitated protein. Supernatants were added to microtiter plates containing suspensions of activated charcoal (Darco G-60, Fisher Scientific) and mixed by inversion. Plates were then centrifuged to separate ^3H—H2O product from charcoal-bound reactants. Supernatants were quantitated in a Perkin Elmer Topcount 384 after solubilization in ScintiSafe Plus 50% (Fisher Scientific).
Inhibition (%) of SCD activity by compounds was calculated according to the following formula: % Inhibition=100*[1−(CPMsample−CPMblank)/(CPMtotal−CPMblank)]
In the case of `NC(=O)c1cc(-c2ccc(OCc3cccc(F)c3)cc2)no1` [Example 16, 3-[4-(3-Fluoro-benzyloxy)-phenyl]-isoxazole-5-carboxylic acid amide], the IC50 worked out at 450 nM. With `CS(=O)(=O)c1ccccc1COc1ccc(-c2cc(C(N)=O)on2)cc1` [Example 22, 3-[4-(2-Methanesulfonyl-benzyloxy)-phenyl]-isoxazole-5-carboxylic acid amide], the IC50 was 1500 nM. The same measure, in the same setting: as for `Cc1cccnc1OCc1ccc(-c2cc(C(N)=O)on2)cc1` [Example 38, 3-[4-(3-Methyl-pyridin-2-yloxymethyl)-phenyl]-isoxazole-5-carboxylic acid amide], the figure is 350 nM; as for `NC(=O)c1cc(-c2ccc(COc3ccccc3OC(F)(F)F)cc2)no1` [Example 33, 3-[4-(2-Trifluoromethoxy-phenoxymethyl)-phenyl]-isoxazole-5-carboxylic acid amide], 470 nM. As for `Cc1ncccc1OCc1ccc(-c2cc(C(N)=O)on2)cc1` [Example 44, 3-[4-(2-Methyl-pyridin-3-yloxymethyl)-phenyl]-isoxazole-5-carboxylic acid amide], the IC50 is 1100 nM. As for `NC(=O)c1cc(-c2ccc(OCc3ccccc3OC(F)(F)F)cc2)no1` [Example 10, 3-[4-(2-Trifluoromethoxy-benzyloxy)-phenyl]-isoxazole-5-carboxylic acid amide], the IC50 was 210 nM.

Regarding `NC(=O)c1cc(-c2ccc(Cn3cnc4ccccc43)cc2)no1` [Example 49, 3-(4-Benzoimidazol-1-ylmethyl-phenyl)-isoxazole-5-carboxylic acid amide], the IC50 amounted to 72 nM. For the compound `NC(=O)c1cc(-c2ccc(OCc3ccccc3Cl)cn2)no1` [Example 14, 3-[5-(2-Chloro-benzyloxy)-pyridin-2-yl]-isoxazole-5-carboxylic acid amide], the IC50 came out at 1400 nM.

Turning to `NC(=O)c1cc(-c2ccc(OCc3ccccc3F)cc2)no1` [Example 8, 3-[4-(2-Fluoro-benzyloxy)-phenyl]-isoxazole-5-carboxylic acid amide], the IC50 came out at 560 nM. Turning to `Cc1ccccc1OCc1ccc(-c2cc(C(N)=O)on2)cc1` [Example 26, 3-(4-o-Tolyloxymethyl-phenyl)-isoxazole-5-carboxylic acid amide], the concentration for half-maximal inhibition (IC50) is 66 nM. On the same count and under the same terms, as for `CC(C)(C)c1ccccc1OCc1ccc(-c2cc(C(N)=O)on2)cc1` [Example 35, 3-[4-(2-tert-Butyl-phenoxymethyl)-phenyl]-isoxazole-5-carboxylic acid amide], the figure is 650 nM; as for `Cc1cccc(OCc2ccc(-c3cc(C(N)=O)on3)cc2)c1` [Example 27, 3-(4-m-Tolyloxymethyl-phenyl)-isoxazole-5-carboxylic acid amide], 560 nM; as for `NC(=O)c1cc(-c2ccc(OCc3c(Cl)cccc3Cl)cc2)no1` [Example 6, 3-[4-(2,6-Dichloro-benzyloxy)-phenyl]-isoxazole-5-carboxylic acid amide], 2600 nM. On to `N#Cc1ccccc1OCc1ccc(-c2cc(C(N)=O)on2)cc1` [Example 37, 3-[4-(2-Cyano-phenoxymethyl)-phenyl]-isoxazole-5-carboxylic acid amide], for which the IC50 stood at 310 nM. Consider `CCc1ccccc1OCc1ccc(-c2cc(C(N)=O)on2)cc1` [Example 34, 3-[4-(2-Ethyl-phenoxymethyl)-phenyl]-isoxazole-5-carboxylic acid amide], for which the 50% inhibitory concentration (IC50) came out at 210 nM. Still for that read-out and setting: the result for `NC(=O)c1cc(-c2ccc(CN3CCc4ccccc43)cc2)no1` [Example 45, 3-[4-(2,3-Dihydro-indol-1-ylmethyl)-phenyl]-isoxazole-5-carboxylic acid amide] reads 31 nM. `NC(=O)c1cc(-c2ccc(COc3ccccc3F)cc2)no1` [Example 39, 3-[4-(2-Fluoro-phenoxymethyl)-phenyl]-isoxazole-5-carboxylic acid amide]: the concentration for half-maximal inhibition (IC50) worked out at 510 nM. Consider `Cc1ccc(Cl)cc1OCc1ccc(-c2cc(C(N)=O)on2)cc1` [Example 40, 3-[4-(5-Chloro-2-methyl-phenoxymethyl)-phenyl]-isoxazole-5-carboxylic acid amide], for which the IC50 was 140 nM. With `NC(=O)c1cc(-c2ccc(COc3cccc(Cl)c3)cc2)no1` [Example 24, 3-[4-(3-Chloro-phenoxymethyl)-phenyl]-isoxazole-5-carboxylic acid amide], the IC50 was found to be 290 nM.

With `NC(=O)c1cc(-c2ccc(OCc3c(F)cccc3Cl)cc2)no1` [Example 12, 3-[4-(2-Chloro-6-fluoro-benzyloxy)-phenyl]-isoxazole-5-carboxylic acid amide], the IC50 is 3100 nM.

`NC(=O)c1cc(-c2ccc(Cn3cc4ccccc4n3)cc2)no1` [Example 51, 3-(4-Indazol-2-ylmethyl-phenyl)-isoxazole-5-carboxylic acid amide]: the IC50 came to 47 nM. On the same count and under the same terms, as for `CC(C)c1ccccc1OCc1ccc(-c2cc(C(N)=O)on2)cc1` [Example 32, 3-[4-(2-Isopropyl-phenoxymethyl)-phenyl]-isoxazole-5-carboxylic acid amide], the figure is 380 nM; as for `CC1Cc2ccccc2N1Cc1ccc(-c2cc(C(N)=O)on2)cc1` (stereo not drawn) [Example 53, 3-[4-(2-Methyl-2,3-dihydro-indol-1-ylmethyl)-phenyl]-isoxazole-5-carboxylic acid amide], 100 nM.

System in another data set: not given
Assay: not given
Conditions: not given
As for `NC(=O)c1cc(-c2ccc(OCc3cccc(F)c3)cc2)no1` [Example 16, 3-[4-(3-Fluoro-benzyloxy)-phenyl]-isoxazole-5-carboxylic acid amide], the melting point was 221 to 222 °C.
